Source: ChEMBL document CHEMBL1201862, “PubChem BioAssay data set” (2004)
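1) Cells in 96-well plates. 2) Compound, 48 h, 5 concentrations. 3) Linear interpolation between surrounding doses. 4) Unreached endpoint = highest concentration. The concentration for 50% growth inhibition is given as GI50.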 Calls of active or inactive are those of the source. Cut-off read from the data, not from the text of the source: active = GI50 up to about 1.1 µM and inactive = higher.

Key:
Assay in all cases: inhibition of tumour cell growth, NCI panel, 48 h
NCI-H460 = test system: NCI-H460
HCT-116 = test system: HCT-116
OVCAR-5 = test system: OVCAR-5
SF-539 = test system: SF-539
ACHN = test system: ACHN
SN12C = test system: SN12C
SW-620 = test system: SW-620
Malme-3M = test system: Malme-3M
XF498 = test system: XF498
SNB-19 = test system: SNB-19
U-251 = test system: U-251
SF-295 = test system: SF-295
SK-MEL-2 = test system: SK-MEL-2
NCI-H23 = test system: NCI-H23
SK-MEL-28 = test system: SK-MEL-28
HOP-62 = test system: HOP-62
OVCAR-8 = test system: OVCAR-8
HL-60 = test system: HL-60
SF-268 = test system: SF-268
HCC 2998 = test system: HCC 2998
M19-MEL = test system: M19-MEL
CAKI-1 = test system: CAKI-1
LXFL 529 = test system: LXFL 529
SR = test system: SR
HOP-92 = test system: HOP-92
DMS-273 = test system: DMS-273
HOP-18 = test system: HOP-18
KM-20L2 = test system: KM-20L2
UACC-62 = test system: UACC-62
OVCAR-4 = test system: OVCAR-4
A498 = test system: A498
LOX IMVI = test system: LOX IMVI
IGROV-1 = test system: IGROV-1
NCI-H522 = test system: NCI-H522
EKVX = test system: EKVX
DMS-114 = test system: DMS-114
SK-MEL-5 = test system: SK-MEL-5
HCT-15 = test system: HCT-15
OVCAR-3 = test system: OVCAR-3
HT-29 = test system: HT-29
K562 = test system: K562
UO-31 = test system: UO-31
KM12 = test system: KM12
COLO 205 = test system: COLO 205
RXF 393 = test system: RXF 393
TK-10 = test system: TK-10
UACC-257 = test system: UACC-257
DLD-1 = test system: DLD-1
MOLT-4 = test system: MOLT-4
NCI-H226 = test system: NCI-H226
SK-OV-3 = test system: SK-OV-3
786-0 = test system: 786-0
A549 = test system: A549
M14 = test system: M14
SNB-78 = test system: SNB-78
SNB-75 = test system: SNB-75
CCRF-CEM = test system: CCRF-CEM
RXF 631 = test system: RXF 631
RPMI-8226 = test system: RPMI-8226

Question: `CSc1cc(C(C)(C)C)ccc1C(O)c1ccc(C(C)(C)C)cc1SC` was tested. Which GI50 (NCI-H460) did it give?
Answer: 8.2 µM (inactive)

Question: What about the GI50 (HCT-116) of the same molecule?
Answer: 5.56 µM (inactive)

Question: What about the GI50 (OVCAR-5) of the same molecule?
Answer: 14 µM (inactive)

Question: And the GI50 (SF-539)?
Answer: 16 µM (inactive)

Question: And the GI50 (ACHN)?
Answer: 11.5 µM (inactive)

Question: What about the GI50 (SN12C) of the same molecule?
Answer: 13.1 µM (inactive)

Question: And the GI50 (SW-620)?
Answer: 11.3 µM (inactive)

Question: What about the GI50 (Malme-3M) of the same molecule?
Answer: 14 µM (inactive)

Question: What about the GI50 (XF498) of the same molecule?
Answer: 10.8 µM (inactive)

Question: What about the GI50 (SNB-19) of the same molecule?
Answer: 16 µM (inactive)

Question: And the GI50 (U-251)?
Answer: 14.1 µM (inactive)

Question: What about the GI50 (SF-295) of the same molecule?
Answer: 10.5 µM (inactive)

Question: What about the GI50 (SK-MEL-2) of the same molecule?
Answer: 15.1 µM (inactive)

Question: What about the GI50 (NCI-H23) of the same molecule?
Answer: 8.49 µM (inactive)

Question: And the GI50 (SK-MEL-28)?
Answer: 17.5 µM (inactive)

Question: What about the GI50 (HOP-62) of the same molecule?
Answer: 13.5 µM (inactive)

Question: What about the GI50 (OVCAR-8) of the same molecule?
Answer: 11.4 µM (inactive)

Question: And the GI50 (HL-60)?
Answer: 4.91 µM (inactive)

Question: And the GI50 (SF-268)?
Answer: 13.3 µM (inactive)

Question: What about the GI50 (HCC 2998) of the same molecule?
Answer: 18.2 µM (inactive)

Question: What about the GI50 (M19-MEL) of the same molecule?
Answer: 10.2 µM (inactive)

Question: What about the GI50 (CAKI-1) of the same molecule?
Answer: 11.3 µM (inactive)

Question: What about the GI50 (LXFL 529) of the same molecule?
Answer: 13.7 µM (inactive)

Question: What about the GI50 (SR) of the same molecule?
Answer: 10.2 µM (inactive)

Question: And the GI50 (HOP-92)?
Answer: 14.5 µM (inactive)

Question: What about the GI50 (DMS-273) of the same molecule?
Answer: 10.9 µM (inactive)

Question: And the GI50 (HOP-18)?
Answer: 15.5 µM (inactive)

Question: What about the GI50 (KM-20L2) of the same molecule?
Answer: 11 µM (inactive)

Question: What about the GI50 (UACC-62) of the same molecule?
Answer: 15.3 µM (inactive)

Question: What about the GI50 (OVCAR-4) of the same molecule?
Answer: 10.9 µM (inactive)

Question: And the GI50 (A498)?
Answer: 13.2 µM (inactive)

Question: And the GI50 (LOX IMVI)?
Answer: 12 µM (inactive)

Question: And the GI50 (IGROV-1)?
Answer: 10.1 µM (inactive)

Question: What about the GI50 (NCI-H522) of the same molecule?
Answer: 10.2 µM (inactive)

Question: And the GI50 (EKVX)?
Answer: 6.81 µM (inactive)

Question: And the GI50 (DMS-114)?
Answer: 7.69 µM (inactive)

Question: And the GI50 (SK-MEL-5)?
Answer: 14.4 µM (inactive)

Question: And the GI50 (HCT-15)?
Answer: 7.83 µM

Question: What about the GI50 (OVCAR-3) of the same molecule?
Answer: 12.4 µM (inactive)

Question: What about the GI50 (HT-29) of the same molecule?
Answer: 5.79 µM (inactive)

Question: And the GI50 (K562)?
Answer: 7.14 µM (inactive)

Question: And the GI50 (UO-31)?
Answer: 6.37 µM (inactive)

Question: What about the GI50 (KM12) of the same molecule?
Answer: 11.5 µM (inactive)

Question: And the GI50 (COLO 205)?
Answer: 11 µM (inactive)

Question: What about the GI50 (RXF 393) of the same molecule?
Answer: 12.1 µM (inactive)

Question: And the GI50 (TK-10)?
Answer: 15.2 µM (inactive)

Question: What about the GI50 (UACC-257) of the same molecule?
Answer: 10.4 µM (inactive)

Question: What about the GI50 (DLD-1) of the same molecule?
Answer: 8.36 µM (inactive)

Question: And the GI50 (MOLT-4)?
Answer: 3.35 µM (inactive)

Question: What about the GI50 (NCI-H226) of the same molecule?
Answer: 12.9 µM (inactive)

Question: And the GI50 (SK-OV-3)?
Answer: 17.5 µM (inactive)

Question: And the GI50 (786-0)?
Answer: 10.8 µM (inactive)

Question: And the GI50 (A549)?
Answer: 10.6 µM (inactive)

Question: And the GI50 (M14)?
Answer: 12.2 µM (inactive)

Question: And the GI50 (SNB-78)?
Answer: 15.6 µM (inactive)

Question: And the GI50 (SNB-75)?
Answer: 12.8 µM (inactive)

Question: And the GI50 (CCRF-CEM)?
Answer: 10.9 µM (inactive)

Question: Which GI50 (NCI-H460) does the source give for `O=C1OC(=O)c2c1nc1ccccc1c2-c1ccccc1` here?
Answer: > 100 µM (inactive)

Question: What about the GI50 (HCT-116) of the same molecule?
Answer: > 100 µM (inactive)

Question: And the GI50 (OVCAR-5)?
Answer: > 100 µM (inactive)

Question: And the GI50 (SF-539)?
Answer: > 100 µM (inactive)

Question: What about the GI50 (ACHN) of the same molecule?
Answer: > 100 µM (inactive)

Question: And the GI50 (RXF 631)?
Answer: > 100 µM (inactive)

Question: What about the GI50 (SN12C) of the same molecule?
Answer: > 100 µM (inactive)

Question: What about the GI50 (SW-620) of the same molecule?
Answer: > 100 µM (inactive)

Question: What about the GI50 (Malme-3M) of the same molecule?
Answer: > 100 µM (inactive)

Question: And the GI50 (SNB-19)?
Answer: > 100 µM (inactive)

Question: What about the GI50 (U-251) of the same molecule?
Answer: > 100 µM (inactive)

Question: What about the GI50 (SF-295) of the same molecule?
Answer: > 100 µM (inactive)

Question: What about the GI50 (SK-MEL-2) of the same molecule?
Answer: > 100 µM (inactive)

Question: And the GI50 (HOP-62)?
Answer: > 100 µM (inactive)

Question: And the GI50 (OVCAR-8)?
Answer: > 100 µM (inactive)

Question: And the GI50 (HL-60)?
Answer: > 100 µM (inactive)

Question: And the GI50 (SF-268)?
Answer: > 100 µM (inactive)

Question: And the GI50 (RPMI-8226)?
Answer: > 100 µM (inactive)

Question: And the GI50 (HCC 2998)?
Answer: > 100 µM (inactive)

Question: What about the GI50 (M19-MEL) of the same molecule?
Answer: > 100 µM (inactive)

Question: And the GI50 (CAKI-1)?
Answer: > 100 µM (inactive)

Question: And the GI50 (LXFL 529)?
Answer: > 100 µM (inactive)

Question: What about the GI50 (SR) of the same molecule?
Answer: > 100 µM (inactive)

Question: What about the GI50 (HOP-92) of the same molecule?
Answer: > 100 µM (inactive)

Question: And the GI50 (DMS-273)?
Answer: > 100 µM (inactive)

Question: What about the GI50 (HOP-18) of the same molecule?
Answer: > 100 µM (inactive)

Question: And the GI50 (KM-20L2)?
Answer: > 100 µM (inactive)

Question: What about the GI50 (UACC-62) of the same molecule?
Answer: > 100 µM (inactive)

Question: What about the GI50 (OVCAR-4) of the same molecule?
Answer: > 100 µM (inactive)

Question: What about the GI50 (A498) of the same molecule?
Answer: > 100 µM (inactive)

Question: What about the GI50 (LOX IMVI) of the same molecule?
Answer: > 100 µM (inactive)

Question: And the GI50 (IGROV-1)?
Answer: > 100 µM (inactive)

Question: What about the GI50 (NCI-H522) of the same molecule?
Answer: > 100 µM (inactive)

Question: And the GI50 (DMS-114)?
Answer: > 100 µM (inactive)

Question: And the GI50 (SK-MEL-5)?
Answer: > 100 µM (inactive)

Question: And the GI50 (HCT-15)?
Answer: > 100 µM

Question: What about the GI50 (HT-29) of the same molecule?
Answer: > 100 µM (inactive)

Question: And the GI50 (K562)?
Answer: > 100 µM (inactive)

Question: And the GI50 (UO-31)?
Answer: > 100 µM (inactive)

Question: What about the GI50 (KM12) of the same molecule?
Answer: > 100 µM (inactive)

Question: And the GI50 (COLO 205)?
Answer: > 100 µM (inactive)

Question: And the GI50 (RXF 393)?
Answer: > 100 µM (inactive)

Question: And the GI50 (TK-10)?
Answer: > 100 µM (inactive)

Question: And the GI50 (UACC-257)?
Answer: > 100 µM (inactive)

Question: What about the GI50 (DLD-1) of the same molecule?
Answer: > 100 µM (inactive)

Question: And the GI50 (MOLT-4)?
Answer: > 100 µM (inactive)

Question: What about the GI50 (NCI-H226) of the same molecule?
Answer: > 100 µM (inactive)

Question: And the GI50 (SK-OV-3)?
Answer: > 100 µM (inactive)

Question: What about the GI50 (786-0) of the same molecule?
Answer: > 100 µM (inactive)

Question: What about the GI50 (A549) of the same molecule?
Answer: > 100 µM (inactive)

Question: What about the GI50 (M14) of the same molecule?
Answer: > 100 µM (inactive)

Question: And the GI50 (SNB-78)?
Answer: > 100 µM (inactive)

Question: What about the GI50 (SNB-75) of the same molecule?
Answer: > 100 µM (inactive)

Question: What about the GI50 (CCRF-CEM) of the same molecule?
Answer: > 100 µM (inactive)
